Measured values as given in patent US5814631A, “Quinazoline derivatives and applications thereof” (Suntory Limited, priority 1995, dated 1998).

What follows are compounds tested against T1, human heart chymase (Homo sapiens, UniProt P23946) (assay: biochemical). Conditions: Chymase inhibitive activity (IC50), Ang I substrate, 37° C., 30 min, pH 7.5.
T1 sequence (P23946 22-247): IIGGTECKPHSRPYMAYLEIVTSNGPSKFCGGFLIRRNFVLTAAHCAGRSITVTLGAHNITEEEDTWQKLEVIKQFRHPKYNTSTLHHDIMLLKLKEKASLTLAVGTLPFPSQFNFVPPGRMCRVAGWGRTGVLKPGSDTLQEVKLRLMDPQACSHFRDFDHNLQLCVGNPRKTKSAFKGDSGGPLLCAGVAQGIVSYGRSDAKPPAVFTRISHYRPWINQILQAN
In the case of `CC[n+]1cccc(NC(=O)Cn2c(=O)n(S(=O)(=O)c3ccc(Cl)cc3)c(=O)c3ccc(Cl)cc32)c1` [Example 56, 3-{[7-chloro-3-(4-chlorobenzenesulfonyl)-2,4(1H,3H)-quinazolinedion-1-yl]acetylamino}-N-ethylpyridinium iodide], the IC50 is reported as 31 nM.
For `C[n+]1ccc(NC(=O)Cn2c(=O)n(S(=O)(=O)c3ccc(Cl)cc3)c(=O)c3ccc(Cl)cc32)cc1` [Example 58, 4-{[7-chloro-3-(4-chlorobenzenesulfonyl)-2,4(1H,3H)-quinazolinedion-1-yl]acetylamino}-N-methylpyridinium iodide], the IC50 was 130 nM.
`O=c1c2ccc(Cl)cc2n(Cc2ccccc2)c(=O)n1S(=O)(=O)c1ccc(Cl)cc1` [Example 59, 1-benzyl-7-chloro-3-(4-chlorobenzenesulfonyl)-2,4(1H,3H )-quinazolinedione] was tested, and the IC50 was 370 nM.
For `N#Cc1ccc(Cn2c(=O)n(S(=O)(=O)c3ccc(Cl)cc3)c(=O)c3ccc(Cl)cc32)cc1` [Example 60, 7-chloro-3-(4-chlorobenzenesulfonyl)-1-(4-cyanobenzyl)-2,4(1H,3H)-quinazolinedione], the IC50 was 340 nM.
Work on `N#Cc1cccc(Cn2c(=O)n(S(=O)(=O)c3ccc(Cl)cc3)c(=O)c3ccc(Cl)cc32)c1` [Example 61, 7-chloro-3-(4-chlorobenzenesulfonyl)-1-(3-cyanobenzyl)-2,4(1H,3H)-quinazolinedione] yielded an IC50 of 160 nM.
`O=C(O)c1cccc(Cn2c(=O)n(S(=O)(=O)c3ccc(Cl)cc3)c(=O)c3ccc(Cl)cc32)c1` [Example 66, 1-(3-carboxybenzyl)-7-chloro-3-(4-chlorobenzenesulfonyl)-2,4(1H,3H)-quinazolinedione] gave an IC50 of 240 nM.
In the case of `O=C(Nc1cccnc1)c1cccc(Cn2c(=O)n(S(=O)(=O)c3ccc(Cl)cc3)c(=O)c3ccc(Cl)cc32)c1` [Example 68, 7-chloro-3-(4-chlorobenzenesulfonyl)-1-(3-(3-pyridyl)aminocarbonyl-benzyl)-2,4(1H,3H)-quinazolinedione], the IC50 is reported as 110 nM.
`O=C(O)CNC(=O)c1cccc(Cn2c(=O)n(S(=O)(=O)c3ccc(Cl)cc3)c(=O)c3ccc(Cl)cc32)c1` [Example 70, 3-(7-chloro-3-(4-chlorobenzenesulfonyl)-2,4(1H,3H)-quinazolinedion-1-yl)methylbenzoylglycine] was tested, and the IC50 was 230 nM.
With `O=C(O)CCC(=O)Nc1ccc(Cn2c(=O)n(S(=O)(=O)c3ccc(Cl)cc3)c(=O)c3ccc(Cl)cc32)cc1` [Example 73] the IC50 was 2300 nM.
`Nc1ccccc1Cn1c(=O)n(S(=O)(=O)c2ccc(Cl)cc2)c(=O)c2ccc(Cl)cc21` [Example 75, 1-(2-aminobenzyl)-7-chloro-3-(4-chlorobenzenesulfonyl)-2,4(1H,3H)-quinazolinedione] showed an IC50 of 180 nM.
Compound `O=C(Cn1c(=O)n(S(=O)(=O)c2ccc(Cl)cc2)c(=O)c2ccc(Cl)cc21)NCc1ccccc1` [Example 80, [7-chloro-3-(4-chlorobenzenesulfonyl)-2,4(1H,3H)-quinazolinedion-1-yl]-N-benzylacetamide] has an IC50 of 140 nM.
In the case of `O=C(Cn1c(=O)n(S(=O)(=O)c2ccc(Cl)cc2)c(=O)c2ccc(Cl)cc21)NCc1ccncc1` [Example 81, [7-chloro-3-(4-chlorobenzenesulfonyl)-2,4 (1H,3H)-quinazolinedion-1-yl]-N-(4-picolyl)acetamide], the IC50 is reported as 220 nM.
Work on `O=C(Cn1c(=O)n(S(=O)(=O)c2ccc(Cl)cc2)c(=O)c2ccc(Cl)cc21)Nc1ccc2[nH]ccc2c1` [Example 82, [7-chloro-3-(4-chlorobenzenesulfonyl)-2,4(1h,3H)-quinazolinedion-1-yl]-N-(5-indolyl)acetamide] yielded an IC50 of 51 nM.
`CC(C)(C)OC(=O)C[n+]1cccc(NC(=O)Cn2c(=O)n(S(=O)(=O)c3ccc(Cl)cc3)c(=O)c3ccc(Cl)cc32)c1` [Example 83, 3-{[7-chloro-3-(4-chlorobenzenesulfonyl)-2,4(1H,3H)-quinazolinedion-1-yl]acetylamino}-(N-t-butoxycarbonylmethylpyridinium) bromide] showed an IC50 of 38 nM.
